The test addresses T1, MCAK (Kinesin-like protein KIF2C/MCAK) (Homo sapiens, UniProt Q99661).
T1 sequence (Q99661 2-725): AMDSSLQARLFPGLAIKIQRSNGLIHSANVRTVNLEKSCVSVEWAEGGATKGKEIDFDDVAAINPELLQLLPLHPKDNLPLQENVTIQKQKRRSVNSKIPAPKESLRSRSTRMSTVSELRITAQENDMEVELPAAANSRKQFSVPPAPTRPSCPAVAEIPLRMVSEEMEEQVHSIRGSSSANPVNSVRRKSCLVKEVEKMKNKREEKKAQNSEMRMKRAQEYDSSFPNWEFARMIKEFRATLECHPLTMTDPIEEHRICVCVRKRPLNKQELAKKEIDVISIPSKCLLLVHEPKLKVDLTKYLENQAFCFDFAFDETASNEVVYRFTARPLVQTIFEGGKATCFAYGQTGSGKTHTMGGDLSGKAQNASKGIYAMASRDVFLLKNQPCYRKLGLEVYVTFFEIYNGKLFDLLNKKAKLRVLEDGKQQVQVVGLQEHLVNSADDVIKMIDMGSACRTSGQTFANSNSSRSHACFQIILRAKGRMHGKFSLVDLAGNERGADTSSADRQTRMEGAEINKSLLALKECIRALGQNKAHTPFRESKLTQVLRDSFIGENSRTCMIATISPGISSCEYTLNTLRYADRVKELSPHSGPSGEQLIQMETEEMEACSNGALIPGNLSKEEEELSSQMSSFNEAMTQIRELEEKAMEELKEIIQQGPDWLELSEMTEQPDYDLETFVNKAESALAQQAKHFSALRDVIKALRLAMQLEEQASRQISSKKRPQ
Description: displacement of MCAK from immobilized ligand […], Western blot. To be noted: MgATP in NP-40 lysis buffer, 15 min. In kind it is biochemical.

As for `Nc1ncnc2c1ncn2[C@@H]1O[C@H](COP(=O)(O)OP(=O)(O)OP(=O)(O)O)[C@@H](O)[C@H]1O` [ATP], the “displacement of MCAK from immobilized ligand 3, Western blot” value was “MCAK binding to the immobilized drug could be inhibited by increasing concentrations of ATP”.

Source of the values: paper PMC3755495 (Biochemical pharmacology, 2013).
